Data: US20150196033A1, “PESTICIDAL COMPOSITIONS AND PROCESSES RELATED THERETO” (priority 2012, published 2015)
Like-named read-outs stand apart in the source and are kept apart here.

How the values were obtained:
[1] = system: Beet Armyworm (BAW) (Spodoptera exigua); experiment: Bioassay on Beet Armyworm (BAW), 128-well diet tray assay; assay type: in vivo; conditions: Spodoptera exigua, 168 h, read-out: Rating BAW (% Control (or Mortality))
Procedure: (§1) Certain molecules disclosed in this document were tested against BAW and CEW using procedures described in the following examples. In the reporting of the results, the “BAW & CEW Rating Table” was used (See Table Section).
Bioassays on BAW (Spodoptera exigua)
(§2) Trays were covered with a clear self-adhesive cover and held at 25° C., 14:10 light-dark for five to seven days. Percent mortality was recorded for the larvae in each well; activity in the eight wells was then averaged. The results are indicated in the table entitled “Table ABC: Biological Results” (See Table Section).

[2] = system: Corn Earworm (CEW) (Helicoverpa zea); experiment: Bioassay on Corn Earworm (CEW), 128-well diet tray assay; assay type: in vivo; conditions: Helicoverpa zea, 168 h; for mortality at 50 µg/cm2: read-out: Rating CEW (% Control (or Mortality)); for mortality at 0.5 µg/cm2: 0.5 μg/cm2 on artificial diet, read-out: Rating CEW (% Control (or Mortality)), *Tested at 0.5 μg/cm2
Procedure: as §1
Bioassays on CEW (Helicoverpa zea)
as §2

[3] = 50 μg/cm2 on artificial diet, second instar larvae, five to seven days
[4] = second instar larvae, five to seven days

SMILES | mortality at 50 µg/cm2 [1, 3] | mortality at 50 µg/cm2 [2, 3] | further results
CC(C)C(=O)OCS/C(=N\C(=O)Nc1ccc(-c2ncn(-c3ccc(OC(F)(F)F)cc3)n2)cc1)Nc1ccccc1C(C)C [Molecule A5, (Z)-((N-(2-Isopropylphenyl)-N′-((4-(1-(4-(trifluoromethoxy)phenyl)-1H-1,2,4-triazol-3-yl)phenyl)carbamoyl)carbamimidoyl)thio)methyl isobutyrate] | 50 to 100% | 50 to 100% | 
Cc1cccc(C)c1N/C(=N/C(=O)Nc1ccc(-c2ncn(-c3ccc(C(F)(F)F)cc3)n2)cc1)SCOC(=O)CNC(=O)OCc1ccccc1 [Molecule A8, (Z)-((N-(2,6-Dimethylphenyl)-N′-((4-(1-(4-(trifluoromethyl)phenyl)-1H-1,2,4-triazol-3-yl)phenyl)carbamoyl)carbamimidoyl)thio)methyl 2-(((benzyloxy)carbonyl)amino)acetate] |  |  | mortality at 50 µg/cm2 [1]: 50 to 100%; mortality at 50 µg/cm2 [2]: 50 to 100%
COc1ccc(N/C(=N/C(=O)Nc2ccc(-c3ncn(-c4ccc(OC(F)(F)F)cc4)n3)cc2)SCS[C@@H]2O[C@@H](C)[C@H](OC)[C@@H](OC)[C@H]2OC)c(C)c1 [Molecule A10, (Z)-(((2S,3R,4R,5S,6S)-3,4,5-Trimethoxy-6-methyltetrahydro-2H-pyran-2-yl)thio)methyl N-(4-methoxy-2-methylphenyl)-N′-((4-(1-(4-(trifluoromethoxy)phenyl)-1H-1,2,4-triazol-3-yl)phenyl)carbamoyl) carbamimidothioate] | 50 to 100% | 50 to 100% | 
CC(C)c1ccccc1NC(=O)NC(=O)Nc1ccc(-c2ncn(-c3ccc(OC(F)(F)F)cc3)n2)cc1 [Molecule A13, 1-(2-isopropylphenyl)-3-[[4-[1-[4-(trifluoromethoxy)phenyl]-1,2,4-triazol-3-yl]phenyl]carbamoyl]urea] | 50 to 100% | 50 to 100% | 
CC(C)c1ccccc1N1C(=O)CS/C1=N\C(=O)Nc1ccc(-c2ncn(-c3ccc(OC(F)(F)F)cc3)n2)cc1 [Molecule A19, (Z)-1-(3-(2-isopropylphenyl)-4-oxothiazolidin-2-ylidene)-3-(4-(1-(4-(trifluoromethoxy)phenyl)-1H-1,2,4-triazol-3-yl)phenyl)urea] | 50 to 100% | 50 to 100% | 
CC(C)c1ccccc1N/C(S)=C/C(=O)Nc1ccc(-c2ncn(-c3ccc(OC(F)(F)F)cc3)n2)cc1 [Molecule A21, 3-((2-isopropylphenyl)amino)-3-thioxo-N-(4-(1-(4-(trifluoromethoxy)phenyl)-1H-1,2,4-triazol-3-yl)phenyl)propanamide] | 50 to 100% | 50 to 100% | 
Cc1cccc(C)c1N/C(S)=C/C(=O)Nc1ccc(-c2ncn(-c3ccc(OC(F)(F)F)cc3)n2)cc1 [Molecule A23, 3-((2,6-dimethylphenyl)amino)-3-thioxo-N-(4-(1-(4-(trifluoromethoxy)phenyl)-1H-1,2,4-triazol-3-yl)phenyl)propanamide] | 50 to 100% | 50 to 100% | 
CC(C)c1ccccc1N1C(=O)CS/C1=C\C(=O)Nc1ccc(-c2ncn(-c3ccc(OC(F)(F)F)cc3)n2)cc1 [Molecule A24, (Z)-2-(3-(2-isopropylphenyl)-4-oxothiazolidin-2-ylidene)-N-(4-(1-(4-(trifluoromethoxy)phenyl)-1H-1,2,4-triazol-3-yl)phenyl)acetamide] | 50 to 100% | 50 to 100% | 
CC(C)c1ccccc1N/C(S)=C(\C#N)C(=O)Nc1ccc(-c2ncn(-c3ccc(OC(F)(F)F)cc3)n2)cc1 [Molecule A25, (Z)-2-cyano-3-((2-isopropylphenyl)amino)-3-mercapto-N-(4-(1-(4-(trifluoromethoxy)phenyl)-1H-1,2,4-triazol-3-yl)phenyl)acrylamide] | 0% | 0 to 50% | 
COc1ccc(N/C(S)=C(\C#N)C(=O)Nc2ccc(-c3ncn(-c4ccc(OC(F)(F)F)cc4)n3)cc2)c(C)c1 [Molecule A26, (Z)-2-Cyano-3-mercapto-3-((4-methoxy-2-methylphenyl)amino)-N-(4-(1-(4-(trifluoromethoxy)phenyl)-1H-1,2,4-triazol-3-yl)phenyl)acrylamide] | 0% | 0% | 
N#C/C(C(=O)Nc1ccc(-c2ncn(-c3ccc(OC(F)(F)F)cc3)n2)cc1)=C(/S)Nc1ccccc1-c1ccccc1 [Molecule A27, (Z)-3-([1,1′-Biphenyl]-2-ylamino)-2-cyano-3-mercapto-N-(4-(1-(4-(trifluoromethoxy)phenyl)-1H-1,2,4-triazol-3-yl)phenyl)acrylamide] | 0% | 0 to 50% | 
Cc1ccccc1N/C(S)=C(\C#N)C(=O)Nc1ccc(-c2ncn(-c3ccc(OC(F)(F)F)cc3)n2)cc1 [Molecule A29, (Z)-2-Cyano-3-mercapto-3-(o-tolylamino)-N-(4-(1-(4-(trifluoromethoxy)phenyl)-1H-1,2,4-triazol-3-yl)phenyl)acrylamide] | 0 to 50% | 50 to 100% | 
N#C/C(C(=O)Nc1ccc(-c2ncn(-c3ccc(OC(F)(F)F)cc3)n2)cc1)=C(/S)Nc1c(F)cccc1F [Molecule A30, (Z)-2-Cyano-3-((2,6-difluorophenyl)amino)-3-mercapto-N-(4-(1-(4-(trifluoromethoxy)phenyl)-1H-1,2,4-triazol-3-yl)phenyl)acrylamide] | 0% | 0% | 
CC(C)c1ccccc1N1C(=O)CS/C1=C(/C#N)C(=O)Nc1ccc(-c2ncn(-c3ccc(OC(F)(F)F)cc3)n2)cc1 [Molecule A31, (Z)-2-Cyano-2-(3-(2-isopropylphenyl)-4-oxothiazolidin-2-ylidene)-N-(4-(1-(4-(trifluoromethoxy)phenyl)-1H-1,2,4-triazol-3-yl)phenyl)acetamide] | 50 to 100% | 50 to 100% | 
Cc1cc(C)c(N2C(=O)CS/C2=N\C(=O)Nc2ccc(-c3ncn(-c4ccc(OC(F)(F)F)cc4)n3)cc2)c(C)c1 [Molecule A36] | 50 to 100% | 50 to 100% | 
O=C(/N=C1\SCC(=O)N1c1ccccc1C1CC1)Nc1ccc(-c2ncn(-c3ccc(OC(F)(F)F)cc3)n2)cc1 [Molecule A66] | 50 to 100% |  | 
Cc1cccc(N/C(S)=N/C(=O)Nc2ccc(-c3ncn(-c4ccc(OC(F)(F)F)cc4)n3)cc2)c1C [Molecule A71] | 50 to 100% |  | 
O=C(/N=C(\S)Nc1ccc(Cl)cc1Cl)Nc1ccc(-c2ncn(-c3ccc(OC(F)(F)F)cc3)n2)cc1 [Molecule A78] | 0% |  | 
Cc1ccc(C(C)C)c(N/C(S)=N/C(=O)Nc2ccc(-c3ncn(-c4ccc(OC(F)(F)F)cc4)n3)cc2)c1 [Molecule A83] | 50 to 100% |  | 
CC(C)(C)c1ccccc1N1C(=O)CS/C1=N\C(=O)Nc1ccc(-c2ncn(-c3ccc(OC(F)(F)F)cc3)n2)cc1 [Molecule A95] |  |  | mortality at 0.5 µg/cm2 [2, 4]: 50 to 100%
COc1ccc(Cl)cc1N/C(S)=N/C(=O)Nc1ccc(-c2ncn(-c3ccc(OC(F)(F)F)cc3)n2)cc1 [Molecule A99] | 0% |  | 
CC(C)c1ccccc1N1C(=O)CS/C1=N\C(=O)Nc1ccc(-c2nnc(-c3ccc(OC(F)(F)C(F)(F)F)cc3)o2)cc1 [Molecule A102, (Z)-1-(3-(2-isopropylphenyl)-4-oxothiazolidin-2-ylidene)-3-(4-(5-(4-(perfluoroethoxy)phenyl)-1,3,4-oxadiazol-2-yl)phenyl)urea] |  |  | mortality at 0.5 µg/cm2 [2, 4]: 50 to 100%
CC(C)c1ccccc1N/C(S)=N/C(=O)Nc1ccc(-c2ncn(-c3ccc(OC(F)(F)C(F)(F)F)cc3)n2)cc1 [Molecule A112] | 50 to 100% |  | 
